A short description of data set [1]: Monkey plasma pharmacokinetics, single oral dose. The format is in vivo, cynomolgus monkeys (Macaca fascicularis). The following applies: for AUC0–t / AUCinf / Cmax / Cmax/dose / t½: geometric mean (CV%); for tmax: median (min–max). On the procedure:
Eight cynomolgus monkeys (Macaca fascicularis) were used for measuring plasma levels of MIV-711 and CTX-I after a single dose. The animals were healthy young males, approximately 2–4 years old and weighing 3–4 kg. Experiments were performed at Covance Ltd (Harrogate, UK). The monkeys were used over an extended period of time (up to a year) and several cathepsin K inhibitors were evaluated during this time. At least 1 week was allowed for washout in between experiments. This was not believed to affect the results with MIV-711, and vehicle controls were run on a regular basis when appropriate. Each animal received at least one dose of MIV-711 and one dose of vehicle with at least 1 week of washout in between treatments.
In single dose experiments, animals were dosed with vehicle or MIV-711 (3–30 µmol/kg) via oral gavage at a dose volume of 4 mL/kg between 7:30 and 9:00 a.m. Blood samples were collected at baseline, 30 min, 1, 2, 4, 8, 12, 24 and 48 h after dose from the femoral vein and transferred into lithium heparin anticoagulant tubes. The samples were centrifuged and the two aliquots of the resultant plasma were frozen at − 70 °C. All samples were processed and stored within 30 min of collection. The aliquots were used to determine the MIV-711 concentration and CTX-I levels, respectively. [drawing 1]
The quantification of MIV-711 in monkey plasma was performed by taking 10–50 µL of plasma and mixing with 3 volumes of acetonitrile (10 s, Vibrofix). The sample was centrifuged (10 min, 20,000×g, 7 °C) and 5 µL of the supernatant was injected onto the liquid chromatography with tandem mass spectrometric detection (LC–MS/MS) system. The lowest concentration of the standard curves and the lower limit of quantification (LLOQ) was 1 nmol/L of MIV-711. The human plasma samples were prepared by protein precipitation for sample extraction followed by LC–MS/MS. The lowest concentration of the standard curves and the LLOQ was 4 nmol/L of MIV-711 using 25 µL of plasma.

For data set [2], the target named is T1, human cathepsin K (Homo sapiens, UniProt P43235).
T1 construct: made in house; host or cells: E. coli
T1 sequence (P43235 115-329): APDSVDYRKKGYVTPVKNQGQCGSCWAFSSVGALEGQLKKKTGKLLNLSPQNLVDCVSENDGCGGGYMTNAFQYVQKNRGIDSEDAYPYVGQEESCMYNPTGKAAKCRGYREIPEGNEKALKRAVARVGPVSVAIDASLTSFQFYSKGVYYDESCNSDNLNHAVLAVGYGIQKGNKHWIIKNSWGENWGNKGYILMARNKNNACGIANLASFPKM
Put plainly: Kinetics of inhibition by progress curve analysis. Format: biochemical. On the procedure:
The kinetics of MIV-711 inhibition of human recombinant cathepsin K were measured by progress curve analysis. Briefly, 100 µmol/L substrate and 0.5 nmol/L cathepsin K were combined in 0.5 mL of buffer in a quartz cuvette and the fluorescence measured continuously in a spectrofluorometer (Hitachi F-4500, Hitachi Scientific Instruments, Woking, UK). Excitation wavelength was 385 nm and emission wavelength was 460 nm and slits were 5 and 10 nm for excitation and emission, respectively. PMT voltage was 700 V and the response time was 0.01 s. Once a linear rate was established, 5 µL MIV-711 (final assay concentration between 10 and 50 nmol/L) or 5 µL DMSO control was added and data collected until a new equilibrium rate was achieved. Data were imported into GraphPad Prism and then fitted to the Morrison equation [26] to obtain kobs. The kobs values were plotted against the inhibitor concentration and fitted to a straight line to obtain kon and koff.

`C#C[C@@H]1CN(C(=O)[C@H](CC(C)C)NC(=O)c2ccc(-c3nc(N4CCN(C)CC4)sc3F)cc2)[C@@H]2C(=O)CO[C@H]12` [MIV-711]: in data set [1] (3 µmol/kg p.o. single dose), the “AUC0–t” value is 0.400 (60) µmol/L × h, the AUCinf was 0.409 (62) µmol/L × h, the peak level (Cmax) was 102 nM and the Cmax/dose is 0.034 (65). Further, in data set [1] (3 µmol/kg p.o. single dose), the t½ is 2.1 (16) h and the tmax is reported as 2.0 (2.0–2.0) h. In data set [1] (10 µmol/kg p.o. single dose), the “AUC0–t” value was 0.881 (52) µmol/L × h, the AUCinf is 0.932 (46) µmol/L × h, the highest level (Cmax) was 164 nM and the Cmax/dose is 0.016 (41). Besides, in data set [1] (10 µmol/kg p.o. single dose), the t½ was 3.1 (52) h and the tmax is reported as 2.0 (0.50–4.0) h. Further, in data set [1] (30 µmol/kg p.o. single dose), the “AUC0–t” value is listed as 6.21 (62) µmol/L × h, the AUCinf was 6.28 (62) µmol/L × h, the Cmax is 923 nM and the Cmax/dose is 0.031 (56). Besides, in data set [1] (30 µmol/kg p.o. single dose), the t½ is 3.4 (30) h and the tmax was 2.0 (1.0–4.0) h. Besides, the “Plasma concentration at 24 h post-dose” value in data set [1] (highest dose group (30 µmol/kg p.o.)) is listed as “approximately 10 nmol/L”. The “Plasma concentration at 24 h post-dose” value in data set [1] (lowest dose group (3 µmol/kg p.o.), below LLOQ) was less than 1 nM. In data set [2] (from koff), the residence time entry is on record as “about 90 s”. For the same molecule, the Ki in data set [2] (from kon and koff experiments, read-out: Ki from kinetic experiments) is 1.7 nM. Moreover, in data set [2] (human cathepsin K), the koff rate worked out at 0.008 s⁻¹ and the kon rate is 4.6e+06 M⁻¹ s⁻¹.

As a reminder, the Cmax is the maximum level reached in the sampled fluid or tissue. As a reminder, the Ki is the equilibrium dissociation constant of an inhibitor or competing ligand from its target.

The values are drawn from publication PMC5944028, “Nonclinical and clinical pharmacological characterization of the potent and selective cathepsin K inhibitor MIV-711” (Journal of Translational Medicine, 2018).
